pKi: −log10 of the molar value.
These compounds were tested against DNA-PK (Homo sapiens, UniProt P78527) (assay: DNA-PK inhibition assay (standard radiometric 33P-ATP kinase assay)). Conditions: 100 μM ATP, approx. 6 nM DNA-PK.
Type: biochemical
Description: Compounds were screened for their ability to inhibit DNA-PK kinase using a standard radiometric assay. Briefly, in this kinase assay the transfer of the terminal ^33P-phosphate in ^33P-ATP to a peptide substrate is interrogated. The assay was carried out in 384-well plates to a final volume of 50 μL per well containing approximately 6 nM DNA-PK, 50 mM HEPES (pH 7.5), 10 mM MgCl2, 25 mM NaCl, 0.01% BSA, 1 mM DTT, 10 μg/mL sheared double-stranded DNA (obtained from Sigma), 0.8 mg/mL DNA-PK peptide (Glu-Pro-Pro-Leu-Ser-Gln-Glu-Ala-Phe-Ala-Asp-Leu-Trp-Lys-Lys-Lys, obtained from American Peptide), and 100 μM ATP.
Accordingly, compounds of the invention were dissolved in DMSO to make 10 mM initial stock solutions. Serial dilutions in DMSO were then made to obtain the final solutions for the assay. A 0.75 μL aliquot of DMSO or inhibitor in DMSO was added to each well, followed by the addition of ATP substrate solution containing ^33P-ATP (obtained from Perkin Elmer). The reaction was started by the addition of DNA-PK, peptide and ds-DNA. After 45 min, the reaction was quenched with 25 μL of 5% phosphoric acid. The reaction mixture was transferred to MultiScreen HTS 384-well PH plates (obtained from Millipore), allowed to bind for one hour, and washed three times with 1% phosphoric acid. Following the addition of 50 μL of Ultima Gold™ high efficiency scintillant (obtained from Perkin Elmer), the samples were counted in a Packard TopCount NXT Microplate Scintillation and Luminescence Counter (Packard BioScience). The Ki values were calculated using Microsoft Excel Solver macros to fit the data to the kinetic model for competitive tight-binding inhibition.

SMILES | pKi
NC(=O)c1cnc(N[C@H]2CC[C@@H](Oc3cc(N4CCOCC4)cc4nccnc34)CC2)nc1 [Compound 65] | > 7.00
COc1cc(N[C@H]2CC[C@@H](Oc3cc(N4CCOCC4)cc4nccnc34)CC2)ncn1 [Compound 194] | > 7.00
COC(=O)c1cnc(N[C@H]2CC[C@@H](Nc3cc(N4CCOCC4)cc4nccnc34)CC2)cn1 [Compound 32] | > 7.00
COc1ccc(N[C@H]2CC[C@@H](Oc3cc(N4CCOCC4)cc4nccnc34)CC2)nc1 [Compound 206] | > 7.00
c1cnc(N[C@H]2CC[C@@H](Nc3cc(N4CCOCC4)cc4nonc34)CC2)nc1 [Compound 23, (cis)-N^1-(6-morpholinobenzo[c][1,2,5]oxadiazol-4-yl)-N^4-(pyrimidin-2-yl)cyclohexane-1,4-diamine] | > 7.00
COc1cncc(N[C@H]2CC[C@@H](Oc3cc(N4CCOCC4)cc4nccnc34)CC2)n1 [Compound 54] | > 7.00
COc1nccc(N[C@H]2CC[C@@H](Oc3cc(N4CCOCC4)cc4nccnc34)CC2)n1 [Compound 268] | > 7.00
Clc1nc(N[C@H]2CC[C@@H](Oc3cc(N4CCOCC4)cc4nccnc34)CC2)nc(C2CC2)n1 [Compound 605] | > 7.00
c1cnc(O[C@H]2CC[C@@H](Nc3cc(N4CCOCC4)cc4nccnc34)CC2)nc1 [Compound 46] | > 7.00
c1cnc(N[C@H]2CC[C@@H](Oc3cc(N4CCOCC4)cc4nccnc34)CC2)nc1 [Compound 28, N-((cis)-4-((7-morpholinoquinoxalin-5-yl)oxy)cyclohexyl)pyrimidin-2-amine] | > 7.00
N#Cc1cnc(N[C@H]2CC[C@@H](Oc3cc(N4CCOCC4)cc4nccnc34)CC2)nc1 [Compound 44] | > 7.00
Cc1cc(N[C@H]2CC[C@@H](Oc3cc(N4CCOCC4)cc4nccnc34)CC2)ncn1 [Compound 265] | > 7.00
Nc1ccc(N[C@H]2CC[C@@H](Oc3cc(N4CCOCC4)cc4nccnc34)CC2)nc1 [Compound 197] | > 7.00
N#Cc1ccnc(N[C@H]2CC[C@@H](Oc3cc(N4CCOCC4)cc4nccnc34)CC2)n1 [Compound 207] | > 7.00
c1ncc(N[C@H]2CC[C@@H](Nc3cc(N4CCOCC4)cc4nccnc34)CC2)cn1 [Compound 30] | > 7.00
O=C(O)c1cnc(N[C@H]2CC[C@@H](Nc3cc(N4CCOCC4)cc4nccnc34)CC2)nc1 [Compound 29] | > 7.00
O=C(O)c1ccnc(N[C@H]2CC[C@@H](Oc3cc(N4CCOCC4)cc4nccnc34)CC2)c1 [Compound 210] | > 7.00
Fc1cc(N[C@H]2CC[C@@H](Oc3cc(N4CCOCC4)cc4nccnc34)CC2)ncn1 [Compound 51] | > 7.00
CCOc1cc(N[C@H]2CC[C@@H](Oc3cc(N4CCOCC4)cc4nccnc34)CC2)ncn1 [Compound 215] | > 7.00
Oc1cnc(N[C@H]2CC[C@@H](Oc3cc(N4CCOCC4)cc4nccnc34)CC2)nc1 [Compound 158] | > 7.00
c1cncc(N[C@H]2CC[C@@H](Oc3cc(N4CCOCC4)cc4nccnc34)CC2)c1 [Compound 272] | > 7.00
Cc1cnc2cc(N3CCOCC3)cc(O[C@H]3CC[C@@H](Nc4ncccn4)CC3)c2n1 [Compound 191] | > 7.00
Cc1cc(C#N)cnc1N[C@H]1CC[C@@H](Oc2cc(N3CCOCC3)cc3nccnc23)CC1 [Compound 242] | > 7.00
CN(C)c1cnc(N[C@H]2CC[C@@H](Oc3cc(N4CCOCC4)cc4nccnc34)CC2)nc1 [Compound 67] | > 7.00
NC(=O)c1ccc(N[C@H]2CC[C@@H](Oc3cc(N4CCOCC4)cc4nccnc34)CC2)nc1 [Compound 140] | > 7.00
Fc1cc(F)nc(N[C@H]2CC[C@@H](Oc3cc(N4CCOCC4)cc4nccnc34)CC2)n1 [Compound 104] | > 7.00

SMILES | pKi
c1cnc(N[C@H]2CC[C@@H](Nc3cc(N4CCOCC4)cc4nccnc34)CC2)nc1 [Compound 18, N^1-(7-morpholinoquinoxalin-5-yl)-N^4-(pyrimidin-2-yl)cyclohexane-1,4-diamine] | > 7.00
CCCCc1cnc2cc(N3CCOCC3)cc(O[C@H]3CC[C@@H](Nc4ncccn4)CC3)c2n1 [Compound 63] | > 7.00
CCOc1ncc(F)c(N[C@H]2CC[C@@H](Oc3cc(N4CCOCC4)cc4nccnc34)CC2)n1 [Compound 607] | > 7.00
FC(F)(F)c1ccc(N[C@H]2CC[C@@H](Oc3cc(N4CCOCC4)cc4nccnc34)CC2)nc1 [Compound 189] | > 7.00
COc1nc(C)nc(N[C@H]2CC[C@@H](Oc3cc(N4CCOCC4)cc4nccnc34)CC2)n1 [Compound 604] | > 7.00
N#Cc1cccc(N[C@H]2CC[C@@H](Oc3cc(N4CCOCC4)cc4nccnc34)CC2)n1 [Compound 195] | > 7.00
CN(C)C(=O)c1cnc(N[C@H]2CC[C@@H](Oc3cc(N4CCOCC4)cc4nccnc34)CC2)nc1 [Compound 72] | > 7.00
Fc1nccc(N[C@H]2CC[C@@H](Oc3cc(N4CCOCC4)cc4nccnc34)CC2)n1 [Compound 50] | > 7.00
CCOCCc1cnc(N[C@H]2CC[C@@H](Oc3cc(N4CCOCC4)cc4nccnc34)CC2)nc1 [Compound 135] | > 7.00
Cc1cnc2c(O[C@H]3CC[C@@H](Nc4ncccn4)CC3)cc(N3CCOCC3)cc2n1 [Compound 190] | > 7.00
N#Cc1ccnc(N[C@H]2CC[C@@H](Oc3cc(N4CCOCC4)cc4nccnc34)CC2)c1 [Compound 84] | > 7.00
O[C@@H](c1cnc(N[C@H]2CC[C@@H](Oc3cc(N4CCOCC4)cc4nccnc34)CC2)nc1)C(F)(F)F [Compound 236] | > 7.00
COc1cc(N[C@H]2CC[C@@H](Oc3cc(N4CCOCC4)cc4nccnc34)CC2)nc(OC)n1 [Compound 245] | > 7.00
CCc1cnc(N[C@H]2CC[C@@H](Oc3cc(N4CCOCC4)cc4nccnc34)CC2)nc1 [Compound 208] | > 7.00
CCN(CC)c1cnc(N[C@H]2CC[C@@H](Oc3cc(N4CCOCC4)cc4nccnc34)CC2)nc1 [Compound 155] | > 7.00
O=C(O)c1cnc(N[C@H]2CC[C@@H](Oc3cc(N4CCOCC4)cc4nccnc34)CC2)nc1 [Compound 69] | > 7.00
c1cc(N[C@H]2CC[C@@H](Oc3cc(N4CCOCC4)cc4nccnc34)CC2)ccn1 [Compound 273] | > 7.00
CN1CCN(c2ccc(C(=O)N[C@H]3CC[C@@H](Oc4cc(N5CCOCC5)cc5nccnc45)CC3)cc2F)CC1 [Compound 200] | > 7.00
CC(C)NC(=O)c1cnc(N[C@H]2CC[C@@H](Oc3cc(N4CCOCC4)cc4nccnc34)CC2)nc1 [Compound 162] | > 7.00
COC(=O)c1cc(C)nc(N[C@H]2CC[C@@H](Oc3cc(N4CCOCC4)cc4nccnc34)CC2)n1 [Compound 565] | > 7.00
c1cnc(N[C@H]2CC[C@@H](Oc3cc(N4CCOCC4)cc4nccnc34)CC2)cn1 [Compound 33] | > 7.00
c1ccc(N[C@H]2CC[C@@H](Oc3cc(N4CCOCC4)cc4nccnc34)CC2)nc1 [Compound 254] | > 7.00
COC(=O)c1cccnc1N[C@H]1CC[C@@H](Oc2cc(N3CCOCC3)cc3nccnc23)CC1 [Compound 202] | > 7.00
O=C(N[C@H]1CC[C@@H](Oc2cc(N3CCOCC3)cc3nccnc23)CC1)C1CC1 [Compound 61] | > 7.00
Brc1cnc(N[C@H]2CC[C@@H](Oc3cc(N4CCOCC4)cc4nccnc34)CC2)nc1 [Compound 45] | > 7.00
Fc1ccc(N[C@H]2CC[C@@H](Oc3cc(N4CCOCC4)cc4nccnc34)CC2)nn1 [Compound 60] | > 7.00
